Columns and labels:
human LPA1 receptors = human LPA1 receptors (Homo sapiens (Human), UniProt Q92633); assay: In vitro LPA1 receptor assay (LPA-driven intracellular calcium release, FLIPR); format: cell-based; conditions: RH7777 cells expressing human LPA1 receptors; LPA at EC80
Method: In Vitro LPA1 Receptor Assay
(§1) Engagement of the LPA1 receptor by its ligand, oleoyl-L-α-lysophosphatidic acid (LPA), leads to the release of intracellular stores of calcium into the cytoplasm mediated through a Gq-driven increase in inositol triphosphate (IP3) levels. Gq is a heterotrimeric G protein subunit that activates phospholipase C.
The ability of test compounds to prevent LPA-driven intracellular release of stored calcium from RH7777 cells expressing human LPA1 receptors was assayed by stimulating the cells with LPA in the presence of various test compounds to measure the test compounds' antagonism, i.e. activity in vitro.
(§2) Approximately 10,000 cells in normal culture medium (Dulbecco's Modified Eagle Media, 10% Foetal Calf Serum) were dispensed per assay well in a black clear bottom collagen coated 384 well plate (Beckton Dickinson). Cells were allowed to settle for thirty minutes at room temperature before being incubated overnight at 37° C., 5% CO2. Sixteen to twenty hours after dispensing, the cells were loaded with a calcium-sensitive fluorescent dye by replacing the culture medium with assay buffer (1× Hanks buffered saline, 25 mM HEPES, 0.1% w/v fatty acid free BSA (bovine serum albumin), pH7.4) containing 1.25 mM probenecid and 1× Calcium 5 Reagent (Molecular Devices). Cells were incubated at 37° C. for one hour to allow for dye uptake.
(§3) To test for antagonist activity, test compounds at a final concentration range between 0.32 nM-10 μM (diluted in assay buffer) were added to the assay wells and allowed to incubate for twenty five minutes. […] Ligand-dependent changes in intracellular calcium levels were determined by measuring changes in fluorescence of the dye over […] following excitation over […].

LPA5 receptor = LPA5 receptor (Homo sapiens (Human), UniProt Q9H1C0); assay: In vitro LPA5 receptor assay (LPA-driven intracellular calcium release, FLIPR); format: cell-based; conditions: RH7777 cells expressing human LPA5 receptors; LPA at EC90
Sequence of LPA5 receptor (Q9H1C0 whole entry): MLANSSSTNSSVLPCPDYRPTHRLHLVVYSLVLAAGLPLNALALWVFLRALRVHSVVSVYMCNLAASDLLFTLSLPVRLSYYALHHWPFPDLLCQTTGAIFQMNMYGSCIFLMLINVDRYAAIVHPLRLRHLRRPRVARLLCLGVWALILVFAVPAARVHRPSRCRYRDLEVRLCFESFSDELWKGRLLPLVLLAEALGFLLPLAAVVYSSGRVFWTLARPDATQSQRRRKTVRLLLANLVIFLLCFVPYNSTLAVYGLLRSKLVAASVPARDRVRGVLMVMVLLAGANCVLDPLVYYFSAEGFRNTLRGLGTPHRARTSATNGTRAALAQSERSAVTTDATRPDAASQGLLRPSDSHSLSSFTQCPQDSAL
Method: In Vitro LPA5 Receptor Assay
as §1, with “LPA5” for “LPA1”
The ability of test compounds to prevent LPA-driven intracellular release of stored calcium from RH7777 cells expressing human LPA5 receptors was assayed by stimulating the cells with LPA in the presence of various test compounds to measure the test compounds'antagonism, i.e. activity in vitro.
as §2, with “(Minimal Essential” for “(Dulbecco's Modified Eagle”, “poly-D-lysine” for “collagen”, “(Corning).” for “(Beckton Dickinson).”
as §3, with “fifteen” for “twenty five”

Sequence of human LPA1 receptors (Q92633 whole entry): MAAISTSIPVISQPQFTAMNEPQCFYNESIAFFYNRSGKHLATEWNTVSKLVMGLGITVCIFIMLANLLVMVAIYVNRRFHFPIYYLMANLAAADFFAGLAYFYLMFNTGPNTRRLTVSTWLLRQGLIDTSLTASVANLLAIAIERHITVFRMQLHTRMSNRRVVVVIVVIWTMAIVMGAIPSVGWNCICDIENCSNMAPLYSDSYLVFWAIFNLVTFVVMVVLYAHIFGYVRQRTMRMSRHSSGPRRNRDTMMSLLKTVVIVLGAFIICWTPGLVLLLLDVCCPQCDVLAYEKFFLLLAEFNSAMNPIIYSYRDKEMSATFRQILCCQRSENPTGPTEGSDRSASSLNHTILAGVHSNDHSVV

| Structure (SMILES) | IC50 (human LPA1 receptors) | IC50 (LPA5 receptor) |
| --- | --- | --- |
| CC(F)(F)CN(Cc1ccc(C(=O)O)cc1)C(=O)c1ccc(Oc2ccccc2F)cc1 [Example 74, 4-((N-(2,2-Difluoropropyl)-4-(2-fluorophenoxy)benzamido)methyl)benzoic acid] | 40 nM | 98 nM |
| Cc1cccc(C)c1Oc1ccc(C(=O)N(Cc2ccccc2)Cc2ccc(C(=O)O)cc2)cc1 [Example 46, 4-((N-Benzyl-4-(2,6-dimethylphenoxy)benzamido)methyl)benzoic acid] | 19 nM | 17 nM |
| COc1ccccc1Oc1ccc(C(=O)N(Cc2ccc(C(=O)O)cc2)CC2CC2)nc1 [Example 69, 4-((N-(Cyclopropylmethyl)-5-(2-methoxyphenoxy)-picolinamido)methyl)benzoic acid] | 12 nM | 8 nM |
| O=C(O)c1ccc(CN(CC2CC2)C(=O)c2ncc(Oc3ccccc3F)cn2)cc1 [Example 83, 4-((N-(Cyclopropylmethyl)-5-(2-fluorophenoxy)pyrimidine-2-carboxamido)methyl)benzoic acid] | 540 nM | 350 nM |
| CCCN(Cc1ccc(C(=O)O)cc1)C(=O)c1ccc(Oc2ccccc2F)cc1 [Example 60, 4-((4-(2-Fluorophenoxy)-N-propylbenzamido)methyl)benzoic acid] | 33 nM | 60 nM |
| CCN(Cc1ccc(C(=O)O)cc1)C(=O)c1ccc(Oc2ccccc2C)cc1 [Example 73, 4-((N-Ethyl-4-(o-tolyloxy)benzamido)methyl)benzoic acid] | 120 nM | 890 nM |
| O=C(O)c1ccc(CN(CCc2ccccc2)C(=O)c2ccc(Oc3ccccc3Cl)cc2)cc1 [Example 36, 4-((4-(2-Chlorophenoxy)-N-phenethylbenzamido)methyl)benzoic acid] | 24 nM | 24 nM |
| COc1ccccc1Oc1ccc(C(=O)N(Cc2ccc(C(=O)O)cc2)CC(F)(F)F)cc1 [Example 61, 4-((4-(2-Methoxyphenoxy)-N-(2,2,2-trifluoroethyl)benzamido)methyl)benzoic acid] | 4 nM | 8 nM |
| COc1ccccc1Oc1ccc(C(=O)N(Cc2ccc(C(=O)O)cc2)CC2CC2)c(F)c1 [Example 66, 4-((N-(Cyclopropylmethyl)-2-fluoro-4-(2-methoxyphenoxy)benzamido)methyl)benzoic acid] | 7 nM | 5 nM |
| COc1cc(F)ccc1Oc1ccc(C(=O)N(Cc2ccc(C(=O)O)cc2)CC2CC2)cc1 [Example 68, 4-((N-(Cyclopropylmethyl)-4-(4-fluoro-2-methoxyphenoxy)benzamido)methyl)benzoic acid] | 13 nM | 10 nM |
| CCCN(Cc1ccc(C(=O)O)cc1)C(=O)c1ncc(Oc2ccccc2OC)cn1 [Example 85, 4-((5-(2-Methoxyphenoxy)-N-propylpyrimidine-2-carboxamido)methyl)benzoic acid] | 180 nM | 120 nM |
| O=C(O)c1ccc(CN(CC(F)(F)F)C(=O)c2ccc(Oc3ccccc3F)cc2)cc1 [Example 3, 4-((4-(2-Fluorophenoxy)-N-(2,2,2-trifluoroethyl)benzamido)-methyl)benzoic acid] | 35 nM | 43 nM |
| CCCN(Cc1ccc(C(=O)O)cc1)C(=O)c1ccc(Oc2ccc(F)cc2OC)cc1 [Example 80, 4-((4-(4-Fluoro-2-methoxyphenoxy)-N-propylbenzamido)methyl)benzoic acid] | 110 nM | 45 nM |
| O=C(O)c1ccc(CN(CCC(F)(F)F)C(=O)c2ccc(Oc3ccccc3F)cc2)cc1 [Example 71, 4-((4-(2-Fluorophenoxy)-N-(3,3,3-trifluoropropyl)benzamido)methyl)benzoic acid] | 59 nM | 83 nM |
| COc1cccc(CN(Cc2ccc(C(=O)O)cc2)C(=O)c2ccc(Oc3ccccc3F)cc2)c1 [Example 13, 4-((4-(2-Fluorophenoxy)-N-(3-methoxybenzyl)benzamido)-methyl)benzoic acid] | 4 nM | 3 nM |

— patent US9464060B2, “Compounds” (TAKEDA PHARMACEUTICAL COMPANY LIMITED, priority 2013, dated 2016)
